Patent US9963443B2, “Radiolabeled compounds” (TAKEDA PHARMACEUTICAL COMPANY LIMITED, priority 2014, dated 2018)

Experiments:
[1] = target: CH24H (Macaca mulatta, UniProt I2CYF7); experiment: PET measurements and image analysis after intravenous bolus of radiotracer; type: in vivo, rhesus macaque (macaca mulatta); conditions: for BPND in the putamen: Logan graphical analysis, cerebellum as reference region, t* 40 min
Procedure: Animals were fasted for 18-24 h before the study. At 2 h prior to injection of the radiopharmaceutical, the animals were anesthetized with intramuscular ketamine (10 mg/kg) and glycopyrrolate (0.01 mg/kg), transferred to the PET camera, and immediately intubated with an endrotracheal tube for continued anesthesia with 2.75% isoflurane administered through a rebreathing circuit. Body temperature was kept at 37° C. using a heated water blanket. Vital signs, including heart rate, blood pressure, respiration rate, oxygen saturation and body temperature, were monitored every 3 to 20 min during the study.
The dynamic series were subsequently reconstructed using filtered back projection with corrections for random, scatter, and attenuation provided by the camera manufacturer.
Four samples of 5 mL were drawn at 3, 10, 30 and 60 min post injection to evaluate the stability in blood as well as the metabolite analysis method and HPLC conditions.
Reconstructed PET image data volumes were transferred to the image processing PMOD software package (PMOD Technologies, Zurich, Switzerland) where the images were realigned with the monkey's individual MRI to apply a volume of interest (VOI) template comprising the following regions: whole brain, caudate nucleus, putamen, globus pallidus, frontal cortex, temporal cortex, occipital cortex, parietal cortex, anterior cingulate cortex, posterior cingulated cortex, hippocampus, thalamus, and cerebellum. Average activity concentration (kBq/cc) within each VOI was determined and time activity curves (TAC) were generated for each study, depicting the regional brain activity concentration over time and reflecting total uptake (specific plus non displaceable). Time activity curves were also expressed in SUV (Standard Uptake Value) units (g/mL) by normalizing by the weight of the animal and the injected dose. Logan graphical analysis with reference region input function was applied to the regional time activity curves with t* fixed at 40 min to obtain an estimate of BPND (Binding Potential relative to the Non-Displaceable compartment), where the cerebellum was used as the reference region.

[2] = target: human CH24H (Homo sapiens (Human), UniProt Q9Y6A2); experiment: Measurement of CH24H inhibitory activity (24-HC produced from [14C]cholesterol by human CH24H lysate); type: biochemical; conditions: [14C]cholesterol 15 μM, 37° C. for 5 hr
Procedure: The expression of human CH24H was performed using FreeStyle 293 Expression System (Invitrogen). […] After transfection, the cells were cultured at 37° C., 8% CO2 with shaking at 125 rpm for 2 days. The cells were collected by centrifugation, and suspended in a suspension buffer (100 mM potassium phosphate (pH 7.4), 0.1 mM EDTA, 1 mM DTT, 20% Glycerol). The suspended product was disrupted by a polytron homogenizer (manufactured by Kinematica), and centrifuged at 9000×g for 10 min, and the supernatant was collected. The collected supernatant was cryopreserved (−80° C.) as a human CH24H lysate standard product.
For the measurement of CH24H inhibitory activity, using the human CH24H lysate prepared in Experimental Example 2, the amount of 24-HC produced from cholesterol by catalytic activity of CH24H was measured in the presence of a test compound, and compared with that measured in the absence of the test compound. That is, a test compound solution at various concentrations was mixed with a reaction buffer (50 mM potassium phosphate containing 0.1% BSA and Complete, EDTA-free, pH 7.4) and human CH24H lysate. Then, [^14C] cholesterol (53 mCi/mmol specific activity, 15 μM) was added, and CH24H reaction was performed at 37° C. for 5 hr. After completion of the reaction, a quenching solution consisting of chloroform/methanol/distilled water (2:2:1 v/v) was added, and the resulting 24-HC was extracted by shaking. The extract was applied to silica gel thin layer chromatography (ethyl acetate:toluene=4:6), and the obtained ^14C-24HC fraction was measured with BAS2500 (Fujifilm Corporation).
The inhibitory rate (%) and IC50 values (μM) were calculated from the ratio of radioactivity in the presence of a test compound relative to the radioactivity in the absence of the test compound.

[3] = tested on: other CNS related human receptors and enzymes; experiment: Selectivity assay over other CNS related human receptors and enzymes (Eurofins Panlabs, Tables 3-1 and 3-2); type: binding; conditions: at 10 μM
Procedure: The CH24H IC50 is a measure of the ability of the test compound to inhibit the action of the CH24H enzyme. To determine the selectivity of the test compounds for CH24H, inhibitory activities of the compound were determined for other CNS (central nerve system) related receptors and enzymes such as Adenosine A2B, Adrenergic β1, Adrenergic β2, Adrenergic β3, Angiotensin AT2, Bradykinin B1, Cannabinoid CB1, Carbonic Anhydrase II, Acetyl Cholinesterase, Cyclooxygenase (COX-1), Cyclooxygenase (COX-2), Dopamine D1, Dopamine D2L, Dopamine D3, Dopamine D4.2, GABA B1A, GABA B1B, Histamine H1, Histamine H2, Imidazoline I2 (Central), MAO A, MAO B, Muscarinic M1, Muscarinic M2, Muscarinic M3, Opiate κ (OP2, KOP), Opiate μ (OP3; MOP), Metalloproteinase, Phosphodiesterase 4 (PDE4), Phosphodiesterase 5 (PDE5), 5-HT2B, NK2, NK3, Dopamine transporter, Norepinephrine transporter, Serotonin transporter (SERT), Vasopressin V1A. […] Such a result is indicative of the selectivity of the compounds in use as radiotracers for quantitative imaging of CH24H. In general, one of ordinary skill in the art would appreciate that a substance is considered to be effectively used for quantitative imaging of CH24H if it has an activity in inhibiting other CNS related receptors and enzymes with less than 50% at 10 μM. […]

human CH24H, sequence (Q9Y6A2 whole entry): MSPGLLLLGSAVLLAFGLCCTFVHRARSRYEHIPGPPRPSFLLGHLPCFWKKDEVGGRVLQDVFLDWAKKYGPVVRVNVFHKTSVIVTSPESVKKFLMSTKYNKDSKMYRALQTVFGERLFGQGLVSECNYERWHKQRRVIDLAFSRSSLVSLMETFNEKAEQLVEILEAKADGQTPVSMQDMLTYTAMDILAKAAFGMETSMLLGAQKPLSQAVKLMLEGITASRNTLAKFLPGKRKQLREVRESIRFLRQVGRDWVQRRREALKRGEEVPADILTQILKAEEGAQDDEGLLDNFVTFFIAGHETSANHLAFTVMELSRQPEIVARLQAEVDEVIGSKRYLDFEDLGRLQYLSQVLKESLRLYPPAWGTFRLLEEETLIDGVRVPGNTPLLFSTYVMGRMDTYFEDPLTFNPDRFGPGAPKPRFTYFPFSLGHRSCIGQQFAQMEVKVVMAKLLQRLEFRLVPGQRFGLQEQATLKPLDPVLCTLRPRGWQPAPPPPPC
CH24H, sequence (I2CYF7 1-500): as the sequence (Q9Y6A2 whole entry) above, with V87I, G417S, A494T counted along it

Molecule	IC50 [2] [nM]	other results
O=C(C1CCN(c2cncnc2-c2ccc(F)cc2)CC1)N1CC([18F])C1 [Example 2, (3-[^18F]fluoroazetidin-1-yl) (1-(4-(4-fluorophenyl)pyrimidin-5-yl)piperidin-4-yl)methanone]		BPND in the putamen [1]: 2.6; brain kinetics ([1]; rhesus monkey, in vivo): favorable kinetics with a significant washout following the maximum uptake; regional brain uptake (distribution) ([1]; rhesus monkey, in vivo): highest uptake in the putamen and caudate; time of maximum SUV in the putamen ([1]; rhesus monkey, in vivo, iv): ~30 min post injection; whole-brain maximum % ID ([1]; rhesus monkey, in vivo, iv): 2.3%
CN(C(=O)C1CCN(c2cncnc2-c2ccc(F)cc2)CC1)C1CC1 [Reference Example 1, N-cyclopropyl-1-(4-(4-fluorophenyl)pyrimidin-5-yl)-N-methylpiperidine-4-carboxamide]	5.4	
O=C(C1CCN(c2cncnc2-c2ccc(F)cc2)CC1)N1CC(F)C1 [Reference Example 2, (3-fluoroazetidin-1-yl) (1-(4-(4-fluorophenyl)pyrimidin-5-yl)piperidin-4-yl)methanone]	8.8	inhibition in the assays listed in Tables 3-1 and 3-2 [3]: less than 50%
CN(C(=O)C1CCN(c2cnccc2-n2cc(Cl)cn2)CC1)C1CCOCC1 [Reference Example 3, 1-(4-(4-chloro-1H-pyrazol-1-yl)pyridin-3-yl)-N-methyl-N-(tetrahydro-2H-pyran-4-yl)piperidine-4-carboxamide]	7.4	
Cc1cnn(-c2ccncc2N2CCC(C(=O)N3CC(F)C3)CC2)c1 [Reference Example 4, (3-fluoroazetidin-1-yl) (1-(4-(4-methyl-1H-pyrazol-1-yl)pyridin-3-yl)piperidin-4-yl)methanone]	7.1	
O=C(C1CCN(c2cnccc2-n2cc(Cl)cn2)CC1)N1CC(F)C1 [Reference Example 5, (1-(4-(4-chloro-1H-pyrazol-1-yl)pyridin-3-yl)piperidin-4-yl) (3-fluoroazetidin-1-yl)methanone]	19	
O=C(C1CCN(c2cncnc2-c2ccc(F)cc2)CC1)N1CC[C@H](F)C1 [Reference Example 10, (1-(4-(4-fluorophenyl)pyrimidin-5-yl)piperidin-4-yl) ((3S)-3-fluoropyrrolidin-1-yl)methanone]	20	
O=C(C1CCN(c2cncnc2-c2ccc(F)cc2)CC1)N1CC[C@@H](F)C1 [Reference Example 11, (1-(4-(4-fluorophenyl)pyrimidin-5-yl)piperidin-4-yl) ((3R)-3-fluoropyrrolidin-1-yl)methanone]	16	
CN(C(=O)C1CCN(c2cnccc2-n2cc(Cl)cn2)CC1)[C@H]1CCOC1 [Reference Example 13, 1-(4-(4-chloro-1H-pyrazol-1-yl)pyridin-3-yl)-N-methyl-N-((3S)-tetrahydrofuran-3-yl)piperidine-4-carboxamide]	20	
CN(C(=O)C1CCN(c2cnccc2-n2cc(Cl)cn2)CC1)[C@@H]1CCOC1 [Reference Example 14, 1-(4-(4-chloro-1H-pyrazol-1-yl)pyridin-3-yl)-N-methyl-N-((3R)-tetrahydrofuran-3-yl)piperidine-4-carboxamide]	17	
O=C(C1CCN(c2cnccc2-n2cc(Br)cn2)CC1)N1CC(F)C1 [Reference Example 20, (1-(4-(4-bromo-1H-pyrazol-1-yl)pyridin-3-yl)piperidin-4-yl) (3-fluoroazetidin-1-yl)methanone]	6.9	
Cc1cnc(-c2ccncc2N2CCC(C(=O)N3CC(F)C3)CC2)s1 [Reference Example 21, (3-fluoroazetidin-1-yl) (1-(4-(5-methyl-1,3-thiazol-2-yl)pyridin-3-yl)piperidin-4-yl)methanone]	4.9	
Cc1cnn(-c2ccncc2N2CCN(C(=O)N(CCF)Cc3ccc(F)cc3)CC2)c1 [Reference Example 23, N-(4-fluorobenzyl)-N-(2-fluoroethyl)-4-(4-(4-methyl-1H-pyrazol-1-yl)pyridin-3-yl)piperazine-1-carboxamide]	17	
O=C(C1CCN(c2cnccc2-n2cc(C3CC3)cn2)CC1)N1CC(F)C1 [Reference Example 26, (1-(4-(4-cyclopropyl-1H-pyrazol-1-yl)pyridin-3-yl)piperidin-4-yl) (3-fluoroazetidin-1-yl)methanone]	10	
(1-(4-(4-chloro-1H-pyrazol-1-yl)pyridin-3-yl)piperidin-4-yl) (3-[^18F]fluoroazetidin-1-yl)methanone [Example 1]		BPND in the putamen [1]: 2.3; brain kinetics ([1]; female rhesus macaque, PET time activity curves): favorable kinetics with a significant washout following the maximum uptake; regional brain uptake (distribution) ([1]; female rhesus macaque, PET time activity curves (FIG. 1, FIG. 2)): highest uptake in the putamen and caudate; whole-brain maximum % ID ([1]; female rhesus macaque, i.v. bolus, PET): 1.6%
